Article PMC11005723, “Development of Complementary Photo‐arginine/lysine to Promote Discovery of Arg/Lys hPTMs Interactomes” (Advanced Science, 2024)

Key:
RBBP7 = molecular target: T1, RBBP7 (Homo sapiens, UniProt Q16576); assay: ITC binding of native H3 peptides to RBBP7; conditions: H3R2me2a versus H3R2, from ITC Kd
T1 construct: DNA fragment encoding RBBP4/7 (1‐ 425) was cloned into pFBOH‐LIC donor plasmid; His (inferred from Ni-NTA purification; vector pFBOH-LIC); made in house; host or cells: sf9 insect cells (baculovirus)
T1 sequence (Q16576 whole entry, the tested form may be a part): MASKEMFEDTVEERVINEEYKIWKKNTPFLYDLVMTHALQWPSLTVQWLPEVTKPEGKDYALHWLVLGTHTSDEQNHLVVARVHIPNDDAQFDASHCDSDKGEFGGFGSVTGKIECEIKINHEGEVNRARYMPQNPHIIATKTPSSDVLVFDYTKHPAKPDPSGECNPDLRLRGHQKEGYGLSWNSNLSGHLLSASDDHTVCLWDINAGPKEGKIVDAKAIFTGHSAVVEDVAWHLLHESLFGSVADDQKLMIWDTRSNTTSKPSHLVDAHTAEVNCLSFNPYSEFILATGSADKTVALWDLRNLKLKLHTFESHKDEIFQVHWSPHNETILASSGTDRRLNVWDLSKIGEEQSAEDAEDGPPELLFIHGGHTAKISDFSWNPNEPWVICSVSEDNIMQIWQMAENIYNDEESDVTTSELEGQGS
Experimental: (§1) DNA fragment encoding RBBP4/7 (1‐ 425) was cloned into pFBOH‐LIC donor plasmid. The resulting plasmid was transformed into DH10Bac Competent E. coli cells (Invitrogen) and a recombinant Bacmid DNA was purified and followed by a recombinant baculovirus generation in sf9 insect cells. sf9 cells grown in HyQ SFX insect serum‐free medium (Thermo Scientific) were infected with 10 mL of P3 viral stocks per 1 L of suspension cell culture and incubated at 27 °C using a platform shaker set at 150 rpm. The cells were harvested by centrifugation (4000 rpm for 10 min at 4 °C) after 72 h of post‐infection time when viability dropped to 70–80%. […] Fractions were assessed by SDS‐PAGE electrophoresis and those containing pure protein were pooled, concentrated, and flash‐frozen for storage at −80 °C. […]

[1] = molecular target: T2, tandem PHD domain of DPF2 (DPF2PHD) (Homo sapiens, UniProt Q92785); assay: ITC binding of native H3 peptides to DPF2PHD; conditions: 25 °C, native H3_1‐15 peptides without diazirine and biotin, n = 2, representative data
T2 construct: His‐DPF2PHD (residues 270–391) domain in pET28‐MHL vector; His (N); made in house; host or cells: Escherichia coli BL21 (DE3)
T2 sequence (Q92785 270-391): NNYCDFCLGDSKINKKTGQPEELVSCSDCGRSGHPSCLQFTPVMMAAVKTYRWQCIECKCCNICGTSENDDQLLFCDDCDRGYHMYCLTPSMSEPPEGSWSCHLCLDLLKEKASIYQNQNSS

[2] = molecular target: T3, PWWP domain of MSH6 (MSH6PWWP) (Homo sapiens, UniProt P52701); assay: ITC binding of H3R2me2a to MSH6PWWP; conditions: 25 °C
T3 construct: His‐MSH6PWWP (residues 87–198) domain in pET28‐MHL vector; His (N); made in house; host or cells: Escherichia coli BL21 (DE3)
T3 sequence (P52701 87-198): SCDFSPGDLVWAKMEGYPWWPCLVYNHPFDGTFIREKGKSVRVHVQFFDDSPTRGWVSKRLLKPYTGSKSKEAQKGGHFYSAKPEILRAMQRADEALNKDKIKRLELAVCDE
Experimental: His‐MSH6PWWP (residues 87–198) domain in pET28‐MHL vector. His‐ MSH6PWWP were expressed in Escherichia coli strain BL21 (DE3) (Novagen) with 0.5 mM IPTG induction at 16 °C in LB medium. After cell lysis by French Press Cell Disrupter (Thermo) and centrifugation, the supernatant was applied to a HisTrap (GE Healthcare) nickel column, and the bound protein was eluted with a linear imidazole gradient from 20 to 500 mM. And further purified by a HiLoad 16/60 Superdex 75 (GE Healthcare) gel filtration column. The pure protein were pooled and dialyzed in buffer (100 mM NaCl, 20 mM Tris, pH 7.5) with Slide‐A‐Lyzer (10000 MWCO). At last, the dialyzed protein were concentrated with to 5 mg mL^−1 and stored in −80 °C freezer for future use. Experiments were performed at 25 °C on a MicroCal PEAQ‐ITC automated (Malvern Instruments). Protein was loaded in the cell was titrated with 19 injections of peptides. The binding isotherm was fit with MicroCal PEAQ‐ITC Analysis software. The assay was done two times to confirm results.

RBBP4 = molecular target: T4, RBBP4 (Homo sapiens, UniProt Q09028); assay: ITC binding of native H3 peptides to RBBP4; conditions: H3R2me2a versus H3R2, from ITC Kd
T4 construct: DNA fragment encoding RBBP4/7 (1‐ 425) was cloned into pFBOH‐LIC donor plasmid; His (inferred from Ni-NTA purification; vector pFBOH-LIC); made in house; host or cells: sf9 insect cells (baculovirus)
T4 sequence (Q09028 whole entry, the tested form may be a part): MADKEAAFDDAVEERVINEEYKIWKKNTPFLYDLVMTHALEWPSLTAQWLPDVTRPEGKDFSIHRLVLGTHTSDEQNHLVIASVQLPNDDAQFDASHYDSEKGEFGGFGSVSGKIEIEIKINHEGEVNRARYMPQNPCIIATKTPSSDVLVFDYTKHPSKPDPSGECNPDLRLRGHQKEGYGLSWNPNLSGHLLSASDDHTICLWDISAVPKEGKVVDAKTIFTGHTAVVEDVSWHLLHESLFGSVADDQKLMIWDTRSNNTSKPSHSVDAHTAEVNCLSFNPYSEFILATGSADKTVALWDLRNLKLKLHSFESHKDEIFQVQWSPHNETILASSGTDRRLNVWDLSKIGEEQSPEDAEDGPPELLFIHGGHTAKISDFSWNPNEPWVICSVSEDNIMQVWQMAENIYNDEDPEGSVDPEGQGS
Experimental: as §1

[3] = molecular target: T5, PHD domain of UHRF1 (UHRF1PHD) (Homo sapiens, UniProt Q96T88); assay: ITC binding of H3 peptides to UHRF1PHD; conditions: 25 °C, 19 injections of peptide into protein, dz peptides carry pre‐installed biotin, done two times
T5 construct: the PHD domain of UHRF1 (UHRF1PHD)
T5 sequence (Q96T88 310-366 limits assumed): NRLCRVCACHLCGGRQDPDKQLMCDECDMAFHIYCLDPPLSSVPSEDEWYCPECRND
Experimental: Experiments were performed at 25 °C on a MicroCal PEAQ‐ITC automated (Malvern Instruments). Protein was loaded in the cell was titrated with 19 injections of peptides. The binding isotherm was fit with MicroCal PEAQ‐ITC Analysis software. The assay was done two times to confirm results.

decrease in binding affinity by asymmetric methylation (RBBP7) (RBBP7) | Kd (DPF2PHD) [1] | interaction with MSH6PWWP via ITC [2] | decrease in binding affinity by asymmetric methylation (RBBP4) (RBBP4) | Kd [3] [µM] | Structure (SMILES)
three–fourfold decrease | no binding affinity detected | undetectable | three–fourfold decrease |  | C[C@H](N)C(=O)N[C@@H](CCCNC(=N)N(C)C)C(=O)N[C@H](C(=O)N[C@@H](CCC1(CN)N=N1)C(=O)N[C@@H](CCC(N)=O)C(=O)N[C@H](C(=O)N[C@@H](C)C(=O)N[C@@H](CCCNC(=N)N)C(=O)N[C@@H](CCCCN)C(=O)N[C@@H](CO)C(=O)N[C@H](C(=O)NCC(=O)NCC(=O)N[C@@H](CCCCNC(=O)CCCC[C@@H]1SC[C@@H]2NC(=O)N[C@@H]21)C(=O)N[C@@H](C)C(N)=O)[C@@H](C)O)[C@@H](C)O)[C@@H](C)O [H3R2me2a]
 |  |  |  | 10.6 | C[C@H](N)C(=O)N[C@@H](CC1(CNC(=N)N)N=N1)C(=O)N[C@H](C(=O)N[C@@H](CCCCN)C(=O)N[C@@H](CCC(N)=O)C(=O)N[C@H](C(=O)N[C@@H](C)C(=O)N[C@@H](CCCNC(=N)N)C(=O)N[C@@H](CCCCN)C(=O)N[C@@H](CO)C(=O)N[C@H](C(=O)NCC(=O)NCC(=O)N[C@@H](CCCCNC(=O)CCCC[C@@H]1SC[C@@H]2NC(=O)N[C@@H]21)C(=O)N[C@@H](C)C(N)=O)[C@@H](C)O)[C@@H](C)O)[C@@H](C)O [H3R2‐dz]
 |  |  |  | 6.4 | C[C@H](N)C(=O)N[C@@H](CCCNC(=N)N)C(=O)N[C@H](C(=O)N[C@@H](CCC1(CN)N=N1)C(=O)N[C@@H](CCC(N)=O)C(=O)N[C@H](C(=O)N[C@@H](C)C(=O)N[C@@H](CCCNC(=N)N)C(=O)N[C@@H](CCCCN)C(=O)N[C@@H](CO)C(=O)N[C@H](C(=O)NCC(=O)NCC(=O)N[C@@H](CCCCNC(=O)CCCC[C@@H]1SC[C@@H]2NC(=O)N[C@@H]21)C(=O)N[C@@H](C)C(N)=O)[C@@H](C)O)[C@@H](C)O)[C@@H](C)O [H3K4‐dz]
